Source: PMC2752443 (2009)

Tests used:
[1] = system: theophylline-binding RNA aptamer (RNA, aptamer) GGCGAUACCAGCCGAAAGGCCCUUGGCAGCGUC; assay: 2D 1H-1H NMR ZZ-exchange; conditions: no Mg2+; 15 °C; apparent; slope of kf against free theophylline
[2] = system: theophylline-binding RNA aptamer (RNA, aptamer) GGCGAUACCAGCCGAAAGGCCCUUGGCAGCGUC; assay: 2D 1H-1H NMR ZZ-exchange, koff/kon; conditions: no Mg2+; 15 °C; from apparent rate constants

kon [1]: 600 ± 57 M⁻¹ s⁻¹
Kd [2]: 2500 µM
Compound: Cn1c(=O)c2[nH]cnc2n(C)c1=O
